Experiments:
C6 cells [1] = test: LDH release assay (cell death); type: cell-based, rat; settings: C6, dose-dependent (24 h) and time-dependent (25 μg/ml), significant after 18 h
Experimental: (§1) As a marker of necrotic cell death, the release of intracellular enzyme LDH, which mediates the conversion 2,4-dinitrophenylhydrazine into visible hydrazone precipitate in the presence of pyruvate, was measured. The cells were seeded in flat-bottom 96-well plates as indicated above and the assay was performed after 24 h incubation, as previously described (Decker et al). The percentage of dead cells was determined using the following formula: [(E−C)/(T−C)]×100, wherein E is the experimental absorbance of treated cultures measured at 492 nm, C is the absorbance of supernatants of control untreated cells, and T is the absorbance corresponding to the maximal (100%) LDH release of Triton-lysed cells. Cell cycle analysis and apoptosis detection were carried out exactly as described in the literature (Mijatovic CMLS 2005). Acidic vesicular organelles, which characterise autophagy, are stained by vital dye acridin orange. The intensity of red fluorescence is proportional to the acidity and volume of the organelles, while the cytoplasm and nucleolus emits bright green and dim red (Kanzawa 2004). […] Green (510-530 nm) and red (>650 nm) fluorescence emission from 10^4 cells illuminated with blue (488 nm) excitation light was measured with a FACS Calibur and analyzed using CellQuest software.

C6 cells [2] = test: Nitrite accumulation (Griess reaction); type: cell-based, rat; settings: 24 h
Experimental: Nitrite accumulation was measured by Griess reaction as previously described (Mijatovic et al CMLS 2004).

B16 melanoma = B16 melanoma in C57BL/6 mice, treatment with GIT27-NO; type: in vivo
Experimental: Primary tumors were induced by subcutaneous (s.c) injection of 2×10^5 B16 melanoma cells in the dorsal right lumbosacral region of syngeneic C57BL/6 mice. […] GIT27-NO was prepared immediately before treatment and was applied i.p. at a dose of 0.5 mg/mouse for 14 consecutive days. The animals were observed until day 30, then sacrificed and tumor growth was determined by three-dimensional measurements of individual tumors from each mouse. Tumor volume was calculated using the following formula: [0.52×a×b^2], where a is the longest and b is the shortest diameter (Smagur et al).

B16 mouse melanoma cells = test: MTT / CV cell viability test; type: cell-based; settings: 24 h
Experimental: (§2) Rat glioma cell line C6 was a kind gift from Dr. Pedro Tranque (Universidad de Castilla-La Mancha, Albacete, Spain), murine melanoma B16 cell line was a kind gift from Dr. Sinisa Radulovic (Institute for Oncology and Radiology of Serbia, Belgrade, Serbia) while mouse fibrosarcoma L929 was obtained from the European Collection of Animal Cell Cultures (Salisbury, UK). Cells were grown in HEPES-buffered RPM, 1640 medium supplemented with 5% FCS, 2 mM glutamine, 0.01% sodium pyruvate, 5×10^−5 M 2-mercaptoethanol and antibiotics (culture medium) at 37° C. in a humidified atmosphere with 5% CO2. After conventional trypsinization the cells were seeded at a concentration of 10^4 cells/well in a 96-well plate, of 2×10^5 cells/well in a 6-well plate or at 3×10^4 cells/well in a 4-well chamber slide, cultivated overnight, and then exposed to the test compound.
(§3) The cells were seeded in flat-bottom 96-well plates (10^4 cells/well) in a final volume of 200 μl of culture medium, incubated overnight, then treated with different concentrations of the test compound. After 24 h incubation, cell viability was assessed using 3-4,5-dimethylthiazol-2-yl)-2,5-diphenyltetrazolium bromide (MTT) test, based on the mitochondrial-dependent reduction of MTT to formazan, or by crystal violet (CV) staining of adherent cells, as previously described (Mijatovic et al CMLS 2004). The results are presented as % of control values obtained in untreated cultures. The rate of cell proliferation was also determined using flow cytometric analysis of cells labeled with CFSE (Kang 2005). The cells were detached, added with 1.5 μM CFSE and allowed to stand for 15 min at 37° C., then washed twice and seeded in 6-well plates at 2×10^5. The cells were treated with the compound for 24 and 48 h, trypsinized and washed twice. Finally, the cells were resuspended in PBS and analyzed by flow cytometry. Green fluorescence emission from cells illuminated with excitation light of 488 nm was measured with a FACS Calibur (BD, Heidelberg, Germany) and analyzed using the CellQuest software.

C6 rat astrocytoma cells = test: MTT / CV cell viability test; type: cell-based; settings: 24 h
Experimental: as §2, §3

[3] = test system: L929 mouse fibrosarcoma cells; test: MTT / CV cell viability test; type: cell-based; settings: 24 h
Experimental: as §2, §3

B16 cells = test: Cell cycle analysis and apoptosis detection (PI staining, flow cytometry); type: cell-based, mouse; settings: B16, 25 μg/ml, 24 h
Experimental: as §1

L929 cells = test: as above; type: cell-based, mouse; settings: L929, 25 μg/ml, 24 h
Experimental: as §1

N#Cc1c(COC(=O)CC2CC(c3ccccc3)=NO2)no[n+]1[O-] (racemic) [GIT27-NO, (S,R)-3-phenyl-4,5 dihydro-5-isoxazole acetic acid-nitric oxide]
LDH release (C6 cells [1]): induced LDH release | accumulation of nitrites (NO release) in culture media alone (C6 cells [2]; in the absence of cells): failed to release NO and to form nitrites | accumulation of nitrites in cell culture supernatants (C6 cells [2]; in the presence of C6 cells): significant amount of nitrites | tumor growth compared to untreated control animals (B16 melanoma; B16 melanoma, 0.5 mg/mouse/day from day 10): significant reduction of tumor growth | survival during follow-up period (B16 melanoma; B16 melanoma, 30 days follow-up, 2 animals died in control group): survived 30 days | Mean tumor volume (B16 melanoma; s.c. B16 melanoma, i.p. 0.5 mg/mouse/day from day 10, measured 30 days after implantation, control 2.97 ± 6.4, p < 0.05): 0.82 ± 1.2 | viability (MTT) of GIT27-NO treated cells in the presence of autophagic inhibitors (B16 mouse melanoma cells; B16, GIT27-NO 25 μg/ml, 3-MA 1 mg/ml or Baf 0.5 μM): recovered | survival (MTT) of GIT27-NO treated cells with specific MAP kinase inhibitors (B16 mouse melanoma cells; B16, GIT27-NO 25 μg/ml, JNK inhibitor SP600125 0.75 μM): significantly improved the survival | viability (MTT) of GIT27-NO treated cells with ROS scavenger NAC (B16 mouse melanoma cells; B16, GIT27-NO 25 μg/ml, NAC 2.5 μM): restored the viability | viability (MTT) of GIT27-NO treated cells with PTK inhibitor tyrphostin (B16 mouse melanoma cells; B16, GIT27-NO 25 μg/ml, tyrphostin 5 μM): almost completely restored the viability | cell viability (MTT, mitochondrial respiration) (B16 mouse melanoma cells; B16 cells, different concentrations, cell number also reduced by CV): dose-dependent reduction of mitochondrial respiration | viability (MTT) of GIT27-NO treated cells in the presence of autophagic inhibitors (C6 rat astrocytoma cells; C6, GIT27-NO 25 μg/ml, 3-MA 1 mg/ml or Baf 0.5 μM): recovered | survival (MTT) of GIT27-NO treated cells with specific MAP kinase inhibitors (C6 rat astrocytoma cells; C6, GIT27-NO 25 μg/ml, ERK inhibitor PD98059 50 μM, JNK inhibitor SP600125 0.75 μM): significantly improved the survival | viability (MTT) of GIT27-NO treated cells with ROS scavenger NAC (C6 rat astrocytoma cells; C6, GIT27-NO 25 μg/ml, NAC 2.5 μM): restored the viability | viability (MTT) of GIT27-NO treated cells with PTK inhibitor tyrphostin (C6 rat astrocytoma cells; C6, GIT27-NO 25 μg/ml, tyrphostin 5 μM): almost completely restored the viability | viability (MTT) of GIT27-NO treated cells in parallel with NO-scavenger hemoglobin (C6 rat astrocytoma cells; C6, hemoglobin 12.5 μM, GIT27-NO 25 mg/ml (as printed in b12)): almost completely restored | cell viability (MTT, mitochondrial respiration) (C6 rat astrocytoma cells; C6 cells, different concentrations, cell number also reduced by CV): dose-dependent reduction of mitochondrial respiration | survival (MTT) of GIT27-NO treated cells with specific MAP kinase inhibitors ([3]; L929, GIT27-NO 25 μg/ml, ERK inhibitor PD98059 50 μM, p38 inhibitor SB202190 20 μM): significantly improved the survival | viability (MTT) of GIT27-NO treated cells with ROS scavenger NAC ([3]; L929, GIT27-NO 25 μg/ml, NAC 2.5 μM): restored the viability | viability (MTT) of GIT27-NO treated cells with PTK inhibitor tyrphostin ([3]; L929, GIT27-NO 25 μg/ml, tyrphostin 5 μM): almost completely restored the viability | cell viability (MTT, mitochondrial respiration) ([3]; L929 cells, different concentrations, cell number also reduced by CV): dose-dependent reduction of mitochondrial respiration | percentage of cells in subG compartment (hypodiploid cells) (B16 cells): < 10% | proportion of hypodiploid cells (subG compartment) (L929 cells): significantly increased proportion of hypodiploid cells

Source: patent US8207206B2, “(S,R)-3-phenyl-4,5 dihydro-5-isoxazole acetic acid-nitric oxide and use thereof as anti-cancer and antiviral agent” (OncoNOx APS, priority 2007, dated 2012)
